# Test results taken from paper PMC4300089, “Structure-Guided Design of Selective Epac1 and Epac2 Agonists” (PLoS Biology, 2015).
# Changes are numbered by the printed parent chain.
# What was measured:
# [1] = target: T1, Epac2^Δ280 (Mus musculus, UniProt Q9EQZ6); assay: Epac activation assay (Rap1B•mGDP fluorescence nucleotide exchange), Epac2^Δ280; type: biochemical; conditions: for AC50 / Rel. kmax: Epac2^Δ280; for Rel. kmax: maximal activity relative to cAMP
# T1 construct: made in house
# T1 sequence (Q9EQZ6 281-993 isoform Q9EQZ6-3): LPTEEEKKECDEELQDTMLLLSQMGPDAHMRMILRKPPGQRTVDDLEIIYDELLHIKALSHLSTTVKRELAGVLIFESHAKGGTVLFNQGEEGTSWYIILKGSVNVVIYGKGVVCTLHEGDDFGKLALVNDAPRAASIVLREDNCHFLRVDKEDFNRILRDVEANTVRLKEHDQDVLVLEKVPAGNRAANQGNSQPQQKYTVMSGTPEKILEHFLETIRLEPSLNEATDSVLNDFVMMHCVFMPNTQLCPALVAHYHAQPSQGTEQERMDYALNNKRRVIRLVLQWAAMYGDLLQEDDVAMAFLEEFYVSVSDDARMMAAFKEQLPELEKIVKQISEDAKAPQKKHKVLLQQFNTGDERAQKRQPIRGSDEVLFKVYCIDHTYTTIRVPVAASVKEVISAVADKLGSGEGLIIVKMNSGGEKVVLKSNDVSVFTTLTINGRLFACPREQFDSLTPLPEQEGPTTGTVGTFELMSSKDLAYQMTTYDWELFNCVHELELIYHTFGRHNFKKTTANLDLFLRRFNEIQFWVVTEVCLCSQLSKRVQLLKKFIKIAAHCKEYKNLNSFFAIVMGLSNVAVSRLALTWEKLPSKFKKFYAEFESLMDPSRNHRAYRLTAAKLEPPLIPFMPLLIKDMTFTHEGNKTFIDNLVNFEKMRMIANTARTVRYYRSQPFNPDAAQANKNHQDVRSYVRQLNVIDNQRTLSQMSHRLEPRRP
# Procedure: (§1) Murine Epac2 was used as all previous structural studies were performed with it.
# (§2) The activity of Epac was determined by a fluorescence assay. […] The fluorescence intensity of Rap1B•mGDP is approximately twice that of free mGDP, and thus, nucleotide exchange can be observed as a decay in fluorescence upon the addition of excess unlabeled GDP.
# [2] = target: T2, Epac2^Δ280,K450A (Mus musculus, UniProt Q9EQZ6, K468A); assay: Epac activation assay, Epac2 K450A mutant; type: biochemical
# T2 construct: made in house
# T2 sequence (Q9EQZ6 281-993 isoform Q9EQZ6-3 K450A): T1 sequence (Q9EQZ6 281-993 isoform Q9EQZ6-3) with K170A
# Procedure: as §1, §2
# [3] = tested on: PKA; assay: Cellular PKA activity: P-VASP band shift in U2OS Epac1 and Epac2 cell lines; type: cell-based; conditions: for rel. P-VASP: PKA, average of Epac1 and Epac2 cell lines, relative to induction with forskolin and IBMX, Fig. 6C
# Procedure: Rap•GTP levels were determined by precipitating GTP-bound Rap specifically from cell lysates and subsequent western Blotting with an α-Rap antibody (Santa Cruz Biotechnology). To generate stable cell lines, U2OS cells were transfected with pBabe-Flag-Epac1 (Epac1, homo sapiens, amino acids 1–881) or pBabe-Flag-Epac2 (Epac2, mus musculus, amino acids 1–993), selected for Epac expression and maintained under selection with 2 mg/l puromycin. The cells were cultured according to standard protocols. The activity of PKA was determined by western blotting with a monoclonal α-VASP antibody (BD Transduction Laboratories). Blots were developed by enhanced chemiluminescence (ECL) and the use of X-ray films; for quantification films were scanned. The intensities of the Rap•GTP bands and the upper band of VASP (P-VASP) were determined for each condition in ImageJ and normalized to the stimulation with forskolin and IBMX for each blot.
compound,measurement,setting,value
"Cc1ccc(CSc2nc3c(N)ncnc3n2[C@@H]2O[C@@H]3CO[P@](O)(=S)O[C@H]3[C@H]2O)cc1 [S-230, Sp-8-pMeBnT-cAMPS]",kobs,[1]; 0.01 μM compound,3.1e-05 s⁻¹
same,kobs,[1]; 0.03 μM compound,5.1e-05 s⁻¹
same,kobs,[1]; 0.04 μM compound,5.8e-05 s⁻¹
same,kobs,[1]; 0.05 μM compound,6.5e-05 s⁻¹
same,kobs,[1]; 0.06 μM compound,6.9e-05 s⁻¹
same,kobs,[1]; 0.07 μM compound,7.9e-05 s⁻¹
same,kobs,[1]; 0.08 μM compound,8.9e-05 s⁻¹
same,kobs,[1]; 0.1 μM compound,0.000108 s⁻¹
same,kobs,[1]; 0.2 μM compound,0.000191 s⁻¹
same,kobs,[1]; 0.3 μM compound,0.000259 s⁻¹
same,kobs,[1]; 0.4 μM compound,0.000337 s⁻¹
same,kobs,[1]; 0.5 μM compound,0.000361 s⁻¹
same,kobs,[1]; 0.6 μM compound,0.000448 s⁻¹
same,kobs,[1]; 0.7 μM compound,0.000484 s⁻¹
same,kobs,[1]; 0.8 μM compound,0.000517 s⁻¹
same,kobs,[1]; 1 μM compound,0.000599 s⁻¹
same,kobs,[1]; 2 μM compound,0.000852 s⁻¹
same,kobs,[1]; 3 μM compound,0.00104 s⁻¹
same,kobs,[1]; 4 μM compound,0.00107 s⁻¹
same,kobs,[1]; 5 μM compound,0.00111 s⁻¹
same,kobs,[1]; 6 μM compound,0.00117 s⁻¹
same,kobs,[1]; 7 μM compound,0.00124 s⁻¹
same,kobs,[1]; 8 μM compound,0.00123 s⁻¹
same,kobs,[1]; 10 μM compound,0.00132 s⁻¹
same,kobs,[1]; 20 μM compound,0.00148 s⁻¹
same,kobs,[1]; 30 μM compound,0.00149 s⁻¹
same,kobs,[1]; 40 μM compound,0.00149 s⁻¹
same,kobs,[1]; 50 μM compound,0.00145 s⁻¹
same,kobs,[1]; 60 μM compound,0.00145 s⁻¹
same,kobs,[1]; 70 μM compound,0.00142 s⁻¹
same,kobs,[1]; 80 μM compound,0.00143 s⁻¹
same,kobs,[1]; 100 μM compound,0.00145 s⁻¹
same,AC50,[1],70 nM
same,Rel. kmax,[1],6.4
"Nc1ncnc2c1ncn2C1OC2COP(O)(=S)OC2C1O (centres unmarked) [S-000, Sp-cAMPS]",kobs,[2]; 0.01 μM compound,2.9e-05 s⁻¹
same,kobs,[2]; 0.03 μM compound,3.7e-05 s⁻¹
same,kobs,[2]; 0.05 μM compound,4.5e-05 s⁻¹
same,kobs,[2]; 0.08 μM compound,5.2e-05 s⁻¹
same,kobs,[2]; 0.2 μM compound,9.9e-05 s⁻¹
same,kobs,[2]; 0.3 μM compound,0.000114 s⁻¹
same,kobs,[2]; 0.5 μM compound,0.000137 s⁻¹
same,kobs,[2]; 0.6 μM compound,0.000137 s⁻¹
same,kobs,[2]; 0.7 μM compound,0.000253 s⁻¹
same,kobs,[2]; 0.8 μM compound,0.000277 s⁻¹
same,kobs,[2]; 1 μM compound,0.000309 s⁻¹
same,kobs,[2]; 2 μM compound,0.000364 s⁻¹
same,kobs,[2]; 3 μM compound,0.00043 s⁻¹
same,kobs,[2]; 4 μM compound,0.000497 s⁻¹
same,kobs,[2]; 5 μM compound,0.000529 s⁻¹
same,kobs,[2]; 6 μM compound,0.000661 s⁻¹
same,kobs,[2]; 7 μM compound,0.000655 s⁻¹
same,kobs,[2]; 8 μM compound,0.000698 s⁻¹
same,kobs,[2]; 10 μM compound,0.000703 s⁻¹
same,kobs,[2]; 20 μM compound,0.000752 s⁻¹
same,kobs,[2]; 30 μM compound,0.000754 s⁻¹
same,kobs,[2]; 40 μM compound,0.000809 s⁻¹
same,kobs,[2]; 50 μM compound,0.000778 s⁻¹
same,kobs,[2]; 60 μM compound,0.000824 s⁻¹
same,kobs,[2]; 70 μM compound,0.000828 s⁻¹
same,kobs,[2]; 80 μM compound,0.000833 s⁻¹
same,kobs,[2]; 100 μM compound,0.000821 s⁻¹
same,kobs,[1]; 0.01 μM compound,2.4e-05 s⁻¹
same,kobs,[1]; 0.05 μM compound,3.7e-05 s⁻¹
same,kobs,[1]; 0.08 μM compound,4.4e-05 s⁻¹
same,kobs,[1]; 0.1 μM compound,4.8e-05 s⁻¹
same,kobs,[1]; 0.2 μM compound,7.3e-05 s⁻¹
same,kobs,[1]; 0.3 μM compound,9.9e-05 s⁻¹
same,kobs,[1]; 0.4 μM compound,0.000122 s⁻¹
same,kobs,[1]; 0.5 μM compound,0.000139 s⁻¹
same,kobs,[1]; 0.6 μM compound,0.000141 s⁻¹
same,kobs,[1]; 0.7 μM compound,0.000159 s⁻¹
same,kobs,[1]; 0.8 μM compound,0.000171 s⁻¹
same,kobs,[1]; 1 μM compound,0.000175 s⁻¹
same,kobs,[1]; 2 μM compound,0.000357 s⁻¹
same,kobs,[1]; 3 μM compound,0.000431 s⁻¹
same,kobs,[1]; 4 μM compound,0.000482 s⁻¹
same,kobs,[1]; 5 μM compound,0.000505 s⁻¹
same,kobs,[1]; 6 μM compound,0.000495 s⁻¹
same,kobs,[1]; 7 μM compound,0.000524 s⁻¹
same,kobs,[1]; 8 μM compound,0.000525 s⁻¹
same,kobs,[1]; 10 μM compound,0.000559 s⁻¹
same,kobs,[1]; 20 μM compound,0.0007 s⁻¹
same,kobs,[1]; 30 μM compound,0.000741 s⁻¹
same,kobs,[1]; 40 μM compound,0.000742 s⁻¹
same,kobs,[1]; 50 μM compound,0.000724 s⁻¹
same,kobs,[1]; 60 μM compound,0.000763 s⁻¹
same,kobs,[1]; 70 μM compound,0.000779 s⁻¹
same,kobs,[1]; 80 μM compound,0.000793 s⁻¹
same,kobs,[1]; 100 μM compound,0.000771 s⁻¹
same,AC50,[1],2800 nM
same,Rel. kmax,[1],2.5
"COC1C2OP(=O)(O)OCC2OC1n1c(Sc2ccc(Cl)cc2)nc2c(N)ncnc21 [D-007, 8-pCPT-2′-O-Me-cAMP, reference compound]",rel. P-VASP,[3],0.1351
same,activation of PKA in cells,[3]; U2OS cell lines,only minor effects
same,AC50,[1],3500 nM
same,Rel. kmax,[1],0.8
"Nc1ncnc2c1ncn2[C@@H]1O[C@@H]2COP(=O)(O)O[C@H]2[C@H]1O [cAMP, reference compound]",kobs,[2]; 0.01 μM compound,2.72e-05 s⁻¹
same,kobs,[2]; 0.05 μM compound,4e-05 s⁻¹
same,kobs,[2]; 0.08 μM compound,5.02e-05 s⁻¹
same,kobs,[2]; 0.1 μM compound,5.2e-05 s⁻¹
same,kobs,[2]; 0.2 μM compound,8.53e-05 s⁻¹
same,kobs,[2]; 0.3 μM compound,0.000105 s⁻¹
same,kobs,[2]; 0.4 μM compound,0.000119 s⁻¹
same,kobs,[2]; 0.5 μM compound,0.000137 s⁻¹
same,kobs,[2]; 0.6 μM compound,0.000149 s⁻¹
same,kobs,[2]; 0.7 μM compound,0.000155 s⁻¹
same,kobs,[2]; 0.8 μM compound,0.000159 s⁻¹
same,kobs,[2]; 1 μM compound,0.000183 s⁻¹
same,kobs,[2]; 2 μM compound,0.000228 s⁻¹
same,kobs,[2]; 3 μM compound,0.000276 s⁻¹
same,kobs,[2]; 4 μM compound,0.000288 s⁻¹
same,kobs,[2]; 5 μM compound,0.000293 s⁻¹
same,kobs,[2]; 6 μM compound,0.0003 s⁻¹
same,kobs,[2]; 7 μM compound,0.000286 s⁻¹
same,kobs,[2]; 8 μM compound,0.0003 s⁻¹
same,kobs,[2]; 10 μM compound,0.000289 s⁻¹
same,kobs,[2]; 20 μM compound,0.000309 s⁻¹
same,kobs,[2]; 30 μM compound,0.000319 s⁻¹
same,kobs,[2]; 40 μM compound,0.000313 s⁻¹
same,kobs,[2]; 50 μM compound,0.000318 s⁻¹
same,kobs,[2]; 60 μM compound,0.00031 s⁻¹
same,kobs,[2]; 70 μM compound,0.000323 s⁻¹
same,kobs,[2]; 80 μM compound,0.000319 s⁻¹
same,kobs,[2]; 100 μM compound,0.000327 s⁻¹
same,kobs,[1]; 0.4 μM compound,9.9e-05 s⁻¹
same,kobs,[1]; 0.5 μM compound,0.000111 s⁻¹
same,kobs,[1]; 0.6 μM compound,0.000113 s⁻¹
same,kobs,[1]; 0.7 μM compound,0.000125 s⁻¹
same,kobs,[1]; 0.8 μM compound,0.000132 s⁻¹
same,kobs,[1]; 1 μM compound,0.000141 s⁻¹
same,kobs,[1]; 2 μM compound,0.000207 s⁻¹
same,kobs,[1]; 3 μM compound,0.000246 s⁻¹
same,kobs,[1]; 4 μM compound,0.000263 s⁻¹
same,kobs,[1]; 5 μM compound,0.000273 s⁻¹
same,kobs,[1]; 6 μM compound,0.000293 s⁻¹
same,kobs,[1]; 7 μM compound,0.000298 s⁻¹
same,kobs,[1]; 8 μM compound,0.000303 s⁻¹
same,kobs,[1]; 10 μM compound,0.00031 s⁻¹
same,kobs,[1]; 20 μM compound,0.000328 s⁻¹
same,kobs,[1]; 30 μM compound,0.000331 s⁻¹
same,share of cAMP bound protein still in an inactive conformation,"[1]; Epac2, assuming the most efficient activators shift the equilibrium fully",~85%
"Nc1ncnc2c1nc(Sc1ccc(Cl)cc1)n2[C@@H]1O[C@@H]2COP(=O)(O)O[C@H]2[C@H]1O [L-026, 8-pCPT-cAMP]",rel. P-VASP,[3],0.9052
same,AC50,[1],80 nM
same,Rel. kmax,[1],0.5
